Columns and labels:
human 5-HT2A = human 5-HT2A (Homo sapiens, UniProt P28223); test: Receptor affinity, 5-HT2A; type: binding
Source text: (§1) M1 refers to N-(4-(2-(2-hydroxyethylamino)ethoxy)-3-(1-methyl-1H-pyrazol-5-yl)phenyl)-3-methoxybenzamide. M2 refers to N-(4-(2-aminoethoxy)-3-(1-methyl-1H-pyrazol-5-yl)phenyl)-3-methoxybenzamide.

5-HT2B receptor = 5-HT2B receptor (Homo sapiens, UniProt P41595); test: Receptor affinity, 5-HT2B; type: binding
Source text: as §1

5-HT2C receptor = biological target: T1, 5-HT2C receptor (Homo sapiens, UniProt P28335); test: Receptor affinity, 5-HT2C; type: binding
T1 sequence (P28335 33-458): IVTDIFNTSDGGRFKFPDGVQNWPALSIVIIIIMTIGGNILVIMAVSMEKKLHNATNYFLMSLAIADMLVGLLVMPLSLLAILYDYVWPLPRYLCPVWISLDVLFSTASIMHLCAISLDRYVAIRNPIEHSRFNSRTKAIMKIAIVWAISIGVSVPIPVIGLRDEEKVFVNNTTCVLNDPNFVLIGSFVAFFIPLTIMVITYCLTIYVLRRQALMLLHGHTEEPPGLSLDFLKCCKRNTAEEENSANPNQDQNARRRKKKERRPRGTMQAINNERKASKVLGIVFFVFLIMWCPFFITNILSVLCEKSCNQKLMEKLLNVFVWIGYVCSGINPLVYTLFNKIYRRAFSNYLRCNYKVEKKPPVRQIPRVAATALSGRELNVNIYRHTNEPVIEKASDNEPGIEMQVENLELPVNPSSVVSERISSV
Source text: as §1

[1] = system: cold-induced vasoconstriction in the rabbit foot; test: Intra-arterial dosing in anesthetized rabbits, peripheral cooling of hind foot; type: in vivo, New Zealand White rabbit; settings: intra-arterial 0.05 then 0.1 mg/kg; left hind foot in 40° C., then 15° C. water bath
Protocol: A study was conducted to assess the effects of intra-arterial dosing of Compound 1 and ketanserin on body temperature, peripheral cooling and peripheral blood flow in naïve anesthetized male New Zealand White rabbits.
Formulations of each test compound were prepared by adding saline and vortexing and sonicating until a clear solution was obtained.
Rabbits were sedated with ketamine/xylazine (25/5 mg/kg, subcutaneous) and then intubated and anesthetized with 1-2% isoflurane driven by 100% oxygen (1-2 L/min). Animals were mechanically ventilated and normal body temperature (38-40° C.) was maintained using an external source of heat (e.g., circulating water blanket, heated surgery table). The femoral incision site was infiltrated with 1 mg/kg ID bupivacaine. A catheter for dosing was placed via cutdown in the left femoral artery. […]
At the start of Dose 1 administration, each rabbit's left hind foot was placed in a water bath set to maintain approximately 40° C. […] At 30 minutes post dose start of Dose 2, in Groups 4-6 only, each rabbit's left hind foot was removed to room temperature, monitored and dosed for an additional 15 minutes.
Average percent change of each temperature and blood flow between baseline and each minute of dose administration was determined relative to time-matched vehicle control data.

[2] = Phase 1 single-dose escalation study, pharmacokinetics; type: in vivo, human; settings: for half-life compared with parent compound: after single oral dose of Compound 1, healthy subjects
Protocol: (§2) A phase 1, randomized, double-blind, placebo-controlled, single-dose escalation study was conducted to assess the tolerability, PK, and PD of Compound 1 doses of 1 to 320 mg administered orally as a single dose to a total of 91 healthy subjects.

[3] = system: 5-HT-mediated amplification of platelet aggregation; test: Phase 1 single-dose escalation study, platelet aggregation with ADP with and without 5-HT; type: in vivo, human; settings: single oral doses above 1 mg
Protocol: as §2
(§3) PD assessment consisted of measuring pre- and post-dose platelet aggregation using an in vitro assay with ADP with and without 5-HT. The degree of thrombin receptor activating peptide (TRAP)-induced platelet aggregation inhibition between groups was similar. However, Compound 1 inhibited 5-HT-mediated amplification of platelet aggregation at doses above 1 mg.

[4] = system: thrombin receptor activating peptide (TRAP)-induced platelet aggregation; test: Phase 1 single-dose escalation study, TRAP-induced platelet aggregation; type: in vivo, human; settings: single oral dose, versus placebo groups
Protocol: as §2, §3

[5] = Phase 1 multiple-ascending dose study, pharmacokinetics; type: in vivo, human; settings: for accumulation ratio as measured by AUCtau: 60 and 80 mg Compound 1 TID, after 7 days
Protocol: (§4) A phase 1, randomized, double-blind, placebo-controlled, multiple-ascending dose-escalation study was conducted to assess the safety, tolerability, PD, and steady state PK of Compound 1 from 5 to 80 mg administered orally TID for 7 days in a total of 50 healthy subjects.

[6] = system: ex vivo 5-HT-mediated amplification of platelet aggregation; test: Phase 1 multiple-ascending dose study, ex vivo platelet aggregation; type: in vivo, human
Protocol: as §4
Administration of Compound 1 inhibited ex vivo 5-HT-mediated amplification of platelet aggregation.

[7] = system: Raynaud phenomenon attacks; settings: intravenous, over 9 weeks, cited from earlier work
[8] = system: Raynaud phenomenon attacks; settings: intravenous; cited from earlier work

Sequence of 5-HT2B receptor (P41595 whole entry): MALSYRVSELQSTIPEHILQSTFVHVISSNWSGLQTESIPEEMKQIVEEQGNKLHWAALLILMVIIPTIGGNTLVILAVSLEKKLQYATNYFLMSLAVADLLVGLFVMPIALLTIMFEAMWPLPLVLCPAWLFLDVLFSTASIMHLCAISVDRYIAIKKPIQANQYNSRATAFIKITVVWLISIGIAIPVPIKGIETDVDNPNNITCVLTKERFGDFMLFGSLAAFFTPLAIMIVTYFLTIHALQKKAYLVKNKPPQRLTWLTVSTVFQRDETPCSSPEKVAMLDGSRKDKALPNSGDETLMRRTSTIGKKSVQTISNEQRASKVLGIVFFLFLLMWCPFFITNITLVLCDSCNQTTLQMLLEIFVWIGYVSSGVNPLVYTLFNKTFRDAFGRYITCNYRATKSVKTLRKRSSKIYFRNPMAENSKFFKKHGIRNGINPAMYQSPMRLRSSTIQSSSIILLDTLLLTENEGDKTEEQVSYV
Sequence of human 5-HT2A (P28223 whole entry): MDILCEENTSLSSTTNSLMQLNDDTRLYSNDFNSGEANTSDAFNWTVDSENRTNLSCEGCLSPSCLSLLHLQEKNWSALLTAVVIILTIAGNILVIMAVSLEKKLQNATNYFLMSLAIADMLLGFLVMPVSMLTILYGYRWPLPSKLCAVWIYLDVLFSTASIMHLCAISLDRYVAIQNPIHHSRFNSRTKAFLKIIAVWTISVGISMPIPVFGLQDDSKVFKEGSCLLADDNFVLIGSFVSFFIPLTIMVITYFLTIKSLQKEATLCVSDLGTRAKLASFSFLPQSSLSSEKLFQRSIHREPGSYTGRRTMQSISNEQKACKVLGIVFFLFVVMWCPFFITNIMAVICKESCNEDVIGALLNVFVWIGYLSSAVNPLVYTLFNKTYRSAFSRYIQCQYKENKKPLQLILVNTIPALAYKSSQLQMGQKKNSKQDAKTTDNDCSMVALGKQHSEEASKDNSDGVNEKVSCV

SMILES | affinity for human 5-HT2A (human 5-HT2A) | affinity for 5-HT2B receptor (5-HT2B receptor) | affinity for 5-HT2C receptor (5-HT2C receptor) | accumulation ratio as measured by AUCtau [5] | effect on cold-induced vasoconstriction in the rabbit foot [1] | half-life compared with parent compound [2] | other results
CC#CCC(C)[C@H](O)/C=C/[C@@H]1[C@H]2C/C(=C/CCCC(=O)O)C[C@H]2C[C@H]1O (stereo partly drawn) [iloprost] |  |  |  |  |  |  | improvement of severity score ([7]; versus 19.7% in comparator): 34.8%; reduction of weekly Raynaud phenomenon attacks ([7]; versus 22.2% in comparator): 39.1%
CCCCC[C@H](O)/C=C/[C@@H]1[C@H]2C/C(=C/CCCC(=O)O)O[C@H]2C[C@H]1O [epoprostenol] |  |  |  |  |  |  | frequency and duration of Raynaud phenomenon attacks [8]: reduced frequency and duration of Raynaud phenomenon attacks; time after the last infusion at which loss in clinical response was observed [8]: 8-10 weeks
O=C(c1ccc(F)cc1)C1CCN(CCn2c(=O)[nH]c3ccccc3c2=O)CC1 [ketanserin, reference compound] |  |  |  |  | partially reduced |  | 

Further lines, with some results ahead:

affinity for human 5-HT2A (human 5-HT2A) | affinity for 5-HT2B receptor (5-HT2B receptor) | affinity for 5-HT2C receptor (5-HT2C receptor) | accumulation ratio as measured by AUCtau [5] | SMILES | effect on cold-induced vasoconstriction in the rabbit foot [1] | half-life compared with parent compound [2] | other results
high affinity | no appreciable affinity | no appreciable affinity |  | COc1cccc(C(=O)Nc2ccc(OCCN3CCOCC3)c(-c3ccnn3C)c2)c1 [Compound 1, 3-methoxy-N-[3-(2-methylpyrazol-3-yl)-4-(2-morpholin-4-ylethoxy)phenyl]benzamide] | partially reduced |  | half-life as Compound 1 dose was escalated ([2]; single oral dose 1 to 320 mg): half-life increased; dose proportionality of plasma exposure measures ([2]; single oral dose 1 to 320 mg, healthy subjects): greater than dose proportional; absorption ([2]; single oral dose 1 to 320 mg, healthy subjects, all doses): rapidly absorbed; 5-HT-mediated amplification of platelet aggregation [3]: inhibited; degree of TRAP-induced platelet aggregation inhibition between groups [4]: similar; dose proportionality of exposure as measured by AUC ([5]; 5 and 10 mg TID): dose proportional; absorption ([5]; 5 to 80 mg oral TID for 7 days, all doses): rapidly absorbed; dose proportionality of exposure as measured by AUC ([5]; 40, 60, and 80 mg TID, Day 1 and Day 7): greater than dose proportional; Cmax and AUC accumulation ratio ([5]; all doses, Day 7 compared with Day 1, TID for 7 days): less than 2; extent of inhibition of ex vivo 5-HT-mediated amplification of platelet aggregation ([6]; 60 mg and 80 mg doses, following dosing on Days 1, 4, and 7): essentially maximal; ex vivo 5-HT-mediated amplification of platelet aggregation ([6]; 5 to 80 mg oral TID for 7 days): inhibited
high affinity | no appreciable affinity | no appreciable affinity | approximately 2 | COc1cccc(C(=O)Nc2ccc(OCCN)c(-c3ccnn3C)c2)c1 [Compound M2, N-(4-(2-aminoethoxy)-3-(1-methyl-1H-pyrazol-5-yl)phenyl)-3-methoxybenzamide] |  | longer half-lives than the parent compound | 
high affinity | no appreciable affinity | no appreciable affinity | approximately 2 | COc1cccc(C(=O)Nc2ccc(OCCNCCO)c(-c3ccnn3C)c2)c1 [Compound M1, N-(4-(2-(2-hydroxyethylamino)ethoxy)-3-(1-methyl-1H-pyrazol-5-yl)phenyl)-3-methoxybenzamide] |  | longer half-lives than the parent compound | 
